Test results published in US20250017206A1, “METHODS FOR PREVENTING OR REDUCING BACTERIAL INFECTION OF PLANT SEEDS” (priority 2022, published 2025).
Entries after “also recorded” stand apart in the source; their conditions may differ.

Tests used:
[1] = test system: Acidovorax citrulli; experiment: A. citrulli growth on LB agar growth medium containing tea, extracts or compounds; type: cell-based; conditions: for inhibition of A. citrulli (summary): compound alone in culture
Protocol: A. citrulli growth on LB agar medium was assessed after treatment with commercial brands of black and green teas and their constituent compounds to determine inhibitory effects. Dried loose tea leaves were boiled in distilled water, strained, and liquid added to LB agar growth medium to assess concentration effects. Five grams of loose-leaf tea was autoclaved in 200 mL distilled water for 25 minutes in the liquid cycle. After autoclaving, the tea was cooled to room temperature and filtered using Whatman #1 filter paper. The filtered tea was adjusted by spectrophotometry (DU 800, Beckman Coulter) to 4.0, 3.0, 2.0, 1.0, and 0.5 at OD390.
Luria Broth (LB) agar growth medium was prepared by mixing 10 grams of tryptone, 5 grams of yeast extract, and 10 grams of sodium chloride, and 15 grams of Bacto™ Agar Solidifying Agent (BD Diagnostics) in 1 liter of distilled water (pH: 7.5) before autoclaving. Collected bacteria were resuspended in autoclave-sterilized 10 mM MgCl2, and adjusted to 1.0, 0.5, 0.1, 0.01, and 0.001 OD600 spectrophotometry.
1 mL of each standard compound was added to 10 mL of LB agar growth medium.
Growth curve on growth medium containing inhibitory extracts and compounds to test whether Acidovorax citrulli could grow in the presence of green and black teas and some of their constituents, growth analysis was conducted in Petri dishes on solid LB agar containing tea or its extracts to quantitate bacterial growth inhibition. We also wanted to see whether tea and its constituents affected antibiotic resistance by comparing growth on both LB agar and Rifampicin containing LB agar. […] For the second stage, effects were verified by blotting 20 μL of inoculum with 9 1:10 serial dilutions to be able to count bacterial colonies. After growth medium solidified, 5 μL of bacterial inoculum adjusted at OD600: to 1.0, 0.5, 0.1, 0.01, or 0.001 (at first stage) and 20 μL of bacterial inoculum adjusted to OD600: 10^0, 10^−1, 10^−2, 10^−3, 10^−4, 10^−5, 10^−6, 10^−7, 10^−8, 10^−9 were blotted on the LB agar growth medium, containing tea samples or other extracts (1:10 mL). The Petri dishes inoculated with bacteria were incubated at 28° C. for 72 h in dark. Autoclaved distilled water was added to growth medium in a separate replicate with 5 μL of 10 mM MgCl2 and bacteria as a negative control. In order to check if additional distilled water affected bacterial growth, growth on LB medium with and without water was compared. Results were compared by colonies. When colonies could not be separated, bacterial growth was scored between 1 and 0 depending on the amount of growth on the surface of the blot.

[2] = test system: A. citrulli strain AAC00-1; conditions: components of cinnamon oil; Choi et al. (2016); cited from earlier work

## Oc1cc(O)c2c(c1)O[C@H](c1cc(O)c(O)c(O)c1)[C@H](O)C2 [EGC, epigallocatechin, reference compound]
[1]; 1 mM, bacteria OD600 0.1 and 0.01
  bacterial growth at 1 mM EGC: efficient inhibitor; also recorded: inhibited bacterial growth on 0.1 dilution of bacteria
[1]; AAC00-1 OD600 1.0-0.001, 0.5-1-1.5 mM
  bacterial growth at 0.5-1-1.5 mM EGC: did not show inhibitory effects; also recorded: showed no inhibition
[1]; bacterial concentration OD600 0.001, AAC00-1
  minimum concentration required for inhibition: 0.5 mM

## O=Cc1ccccc1 [benzaldehyde]
[2]
  antibacterial activities against strain AAC00-1: exhibited antibacterial activities

## O=C(O[C@@H]1Cc2c(O)cc(O)cc2O[C@@H]1c1ccc(O)c(O)c1)c1cc(O)c(O)c(O)c1 [ECG, epicatechin gallate, reference compound]
[1]; 0.5 mM, AA000-1, maximum bacterial concentration OD600 0.01
  bacterial growth at 0.5 mM: inhibited bacterial growth
[1]; AAC00-1, 1.5 mM, bacterial OD600 1.0
  bacterial growth at 1.5 mM: completely inhibitory; also recorded: inhibited all bacterial growth

## catechin
[1]; AAC00-1, 0.1, 1, 10 mM compared, only 10 mM inhibitory, with or without rifampicin
  bacterial colony growth at 10 mM catechin: inhibitory; also recorded: inhibited bacterial growth
[1]; AAC00-1, catechin 0.1, 1, 10 mM, with or without rifampicin 100 μg/mL
  effect of antibiotic presence on bacterial colony growth inhibition by catechin: No difference
[1]; AAC00-1 OD600 1.0-0.001, 5-10-15 mM
  bacterial growth at 5-10-15 mM: inhibited all bacterial growth
[1]
  inhibition of A. citrulli (summary): strongly inhibitory
[1]; final concentration 1 mM in LB agar with rifampicin 100 μg/mL, M6, AAC00-1, aacI, aacR, OD600 1.0-0.001
  bacterial colony growth at 1 mM: inhibited A. citrulli; also recorded: inhibited some lower density colonies of bacteria
[1]; final concentration 10 mM in LB agar with rifampicin 100 μg/mL, M6, AAC00-1, aacI, aacR, OD600 1.0-0.001
  bacterial colony growth at 10 mM: inhibited A. citrulli; also recorded: completely inhibited bacterial growth; also recorded: inhibited growth of all bacterial strains
[1]; overall, 3-Way ANOVA, 95% significance level
  less A. citrulli growth in catechin treatments compared to caffeine treatment: ~25%
[1]; preliminary, data not shown
  inhibition of A. citrulli compared with black tea and caffeine: greater than black tea and caffeine

## O=CC=Cc1ccccc1 [cinnamaldehyde]
[2]
  antibacterial activities against strain AAC00-1: exhibited antibacterial activities

## Cn1c(=O)c2c(ncn2C)n(C)c1=O [caffeine, reference compound]
[1]
  inhibition of A. citrulli (summary): not inhibitory
